Laboratory results reported in ChEMBL document CHEMBL1142344, “Rapid assembly of diverse and potent allosteric Akt inhibitors” (Bioorg Med Chem Lett, 2008).

Columns and labels:
[1] = Half life in dog at 0.25 mg/kg, iv; assay type: ADME, organism-based, Canis lupus familiaris; set-up: dose 0.25 mg/kg, route intravenous; conditions: in vivo
[2] = Clearance in dog at 0.25 mg/kg, iv; assay type: ADME, organism-based, Canis lupus familiaris; set-up: dose 0.25 mg/kg, route intravenous; conditions: in vivo
[3] = target: T1, RAC-alpha serine/threonine-protein kinase (Homo sapiens, UniProt P31749); experiment: Inhibition of human recombinant Akt1
[4] = target: T2, RAC-beta serine/threonine-protein kinase (Homo sapiens, UniProt P31751); experiment: Inhibition of human recombinant Akt2
[5] = target: T1, RAC-alpha serine/threonine-protein kinase; experiment: Inhibition of Akt1 phosphorylation in human C33a cells; assay type: cell-based
[6] = target: T2, RAC-beta serine/threonine-protein kinase; experiment: Inhibition of Akt2 phosphorylation in human C33a cells; assay type: cell-based

T2 sequence (P31751 whole entry): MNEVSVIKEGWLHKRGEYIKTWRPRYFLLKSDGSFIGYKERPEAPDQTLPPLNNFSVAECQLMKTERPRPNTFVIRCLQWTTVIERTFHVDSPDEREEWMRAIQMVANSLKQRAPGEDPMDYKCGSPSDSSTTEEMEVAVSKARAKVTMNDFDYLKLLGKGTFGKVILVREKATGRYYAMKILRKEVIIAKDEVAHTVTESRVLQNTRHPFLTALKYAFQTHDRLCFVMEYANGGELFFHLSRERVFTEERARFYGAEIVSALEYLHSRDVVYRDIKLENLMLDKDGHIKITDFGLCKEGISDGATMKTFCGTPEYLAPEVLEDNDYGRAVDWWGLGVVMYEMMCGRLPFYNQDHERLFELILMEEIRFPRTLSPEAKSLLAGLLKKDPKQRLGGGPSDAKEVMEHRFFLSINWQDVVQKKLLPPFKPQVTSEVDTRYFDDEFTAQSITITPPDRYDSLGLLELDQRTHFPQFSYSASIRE
T1 sequence (P31749 whole entry): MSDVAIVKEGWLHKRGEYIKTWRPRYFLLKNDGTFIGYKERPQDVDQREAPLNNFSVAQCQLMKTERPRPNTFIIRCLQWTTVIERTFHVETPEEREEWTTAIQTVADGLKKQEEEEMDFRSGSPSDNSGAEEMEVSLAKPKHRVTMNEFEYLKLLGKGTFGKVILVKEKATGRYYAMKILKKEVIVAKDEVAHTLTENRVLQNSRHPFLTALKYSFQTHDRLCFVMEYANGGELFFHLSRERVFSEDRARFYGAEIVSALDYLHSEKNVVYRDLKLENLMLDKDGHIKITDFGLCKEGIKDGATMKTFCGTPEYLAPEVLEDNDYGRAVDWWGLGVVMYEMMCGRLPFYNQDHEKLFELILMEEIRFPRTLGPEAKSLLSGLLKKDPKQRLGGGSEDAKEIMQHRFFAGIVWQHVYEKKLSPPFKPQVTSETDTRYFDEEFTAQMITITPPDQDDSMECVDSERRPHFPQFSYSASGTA

half-life [1] [h] | clearance [2] [mL/min/kg] | SMILES | IC50 [3] [nM] | IC50 [4] [nM] | IC50 [5] [nM] | IC50 [6] [nM]
2.8 | 5.6 | Nc1ncnc2nc(-c3ccc(CN4CCC(c5nc6ccc(F)cc6[nH]5)CC4)cc3)c(-c3ccccc3)cc12 | – | – | – | –
– | – | Nc1nn(CCc2c[nH]cn2)c2nc(-c3ccc(CN4CCC(n5c(=O)[nH]c6ccccc65)CC4)cc3)c(-c3ccccc3)cc12 | 21 | 839 | – | –
– | – | Nc1ncnc2nc(-c3ccc(CN4CCC(n5cnc6c(N)ncnc65)CC4)cc3)c(-c3ccccc3)cc12 | 129 | 696 | – | –
– | – | Nc1nn(CCO)c2nc(-c3ccc(CN4CCC(n5c(=O)[nH]c6ccccc65)CC4)cc3)c(-c3ccccc3)cc12 | 131 | 1230 | – | –
– | – | CNc1nc(-c2ccc(CN3CCC(n4c(=O)[nH]c5ccccc54)CC3)cc2)c(-c2ccccc2)cc1C#N | 2250 | 8140 | – | –
– | – | Nc1ncnc2nc(-c3ccc(CN4CCC(c5cc(-c6ccncc6)[nH]n5)CC4)cc3)c(-c3ccccc3)cc12 | 21 | 85 | 463 | 1200
– | – | CN(C)c1nc(-c2ccc(CN3CCC(n4c(=O)[nH]c5ccccc54)CC3)cc2)c(-c2ccccc2)cc1C#N | 8460 | 15400 | – | –
– | – | Nc1n[nH]c2nc(-c3ccc(CN4CCC(n5c(=O)[nH]c6ccccc65)CC4)cc3)c(-c3ccccc3)cc12 | 86 | 7360 | – | –
– | – | N#Cc1cc(-c2ccccc2)c(-c2ccc(CN3CCC(n4c(=O)[nH]c5ccccc54)CC3)cc2)nc1Cl | 253 | 7360 | – | –
– | – | Nc1nc(O)nc2nc(-c3ccc(CN4CCC(n5c(=O)[nH]c6ccccc65)CC4)cc3)c(-c3ccccc3)cc12 | 244 | 577 | – | –
– | – | Cn1nc(N)c2cc(-c3ccccc3)c(-c3ccc(CN4CCC(n5c(=O)[nH]c6ccccc65)CC4)cc3)nc21 | 121 | 556 | – | –
– | – | Nc1nc(N)c2cc(-c3ccccc3)c(-c3ccc(CN4CCC(n5c(=O)[nH]c6ccccc65)CC4)cc3)nc2n1 | 107 | 274 | – | –
– | – | Nc1ncnc2nc(-c3ccc(CN4CCC(n5c(=O)[nH]c6ccccc65)CC4)cc3)c(-c3ccccc3)cc12 | 81 | 259 | 1830 | 5080
– | – | COc1nc(-c2ccc(CN3CCC(n4c(=O)[nH]c5ccccc54)CC3)cc2)c(-c2ccccc2)cc1C#N | 5550 | 37700 | – | –
– | – | Cc1nc2ccccc2n1C1CCN(Cc2ccc(-c3nc4ncnc(N)c4cc3-c3ccccc3)cc2)CC1 | 69 | 281 | 221 | 344
– | – | N#Cc1cc(-c2ccccc2)c(-c2ccc(CN3CCC(n4c(=O)[nH]c5ccccc54)CC3)cc2)nc1N | 495 | 2060 | – | –
